Test results reported in patent US9193995B2, “Compositions for detecting human interferon-alpha subtypes and methods of use” (UNITED STATES DEPARTMENT OF HEALTH AND HUMAN SERVICES, priority 2008, dated 2015).

Experiments:
Assay in all cases: IFN subtype expression in response to TLR ligands (RT-PCR)
Format in all cases: cell-based, Human
myeloid DC (mDC) = details: 10 uM Imiquimod, 6.5 ug/ml CpG A, 1, 4 or 24 hours, varied with donor, FIG. 9E
Source text: (§1) To test whether expression of IFN subtypes varied among different cell types, the primers of the invention were used to determine expression patterns of IFN-alpha, IFN-lambda, IFN-beta and IFN-gamma in response to ligands of TLR 3 (poly I:C), 4 (LPS), 7 (imiquimod) and 9 (CpG). LPS (E. coli O111:B4), imiquimod, and poly I:C were purchased from EMD Chemicals (Gibbstown, N.J.). CpG types D35, K, and C, and control D35 GpC oligonucleotides were synthesized by the Food and Drug Administration Center for Biologics Evaluation and Research Facility for Biotechnology Resources. For both the D35 CpG and control GpC, the two bases at the 5′ and 3′ ends had nuclease-resistant phosphorothioate linkages.
(§2) Human peripheral blood monocytes, myeloid DC (mDC), plasmacytoid DC (pDC), and B cells were isolated. Elutriated monocytes and lymphocytes were obtained from the NIH Clinical Center Department of Transfusion Medicine (Bethesda, Md.) and the preparation was subjected to Ficoll-Hypaque (Sigma-Aldrich, St. Louis, Mo.) density centrifugation. Monocytes, mDC and pDC were purified with magnetic beads specific for CD14, CD1c, and CD303, respectively using an AutoMACS magnetic cell sorter (Miltenyi Biotec, Auburn, Calif.). […]

plasmacytoid DC (pDC) = details: 10 uM Imiquimod, 6.5 ug/ml CpG A, 1, 4 or 24 hours, much higher levels than mDC
Source text: as §1, §2

monocytes, MDM and MDDC = details: 25 ug/ml Poly I:C, 10 ng/ml LPS, 1, 4 or 24 hours, FIG. 9A-C
Source text: as §1, §2

| Compound | IFN expression in response to TLR ligand (myeloid DC (mDC)) | IFN expression in response to TLR ligand (plasmacytoid DC (pDC)) | IFN expression in response to TLR ligand (monocytes, MDM and MDDC) |
| --- | --- | --- | --- |
| CC(C)Cn1cnc2c(N)nc3ccccc3c21 [imiquimod] | expressed most IFN-a subtypes | expressed most IFN |  |
| poly I:C |  |  | expressed high levels of IFN-b, IFN-g, IFN-11, and to a lesser extent, IFN-l2 and IFN-a1 |
